# US20100261719A1, “CHEMICAL COMPOUNDS” (priority 2007, published 2010)
# Columns and labels:
# Sau516 = experiment: Bacterial susceptibility testing (MIC), Sau516; assay type: cell-based; conditions: Staphylococcus aureus, liquid media, 37° C., 24 hours, lowest concentration reducing growth by 80% or more
# From the text: (§1) Compounds may be tested for antimicrobial activity by susceptibility testing in liquid media in a 96 well format. Compounds may be dissolved in dimethylsulfoxide and tested in 10 doubling dilutions in the susceptibility assays. The organisms used in the assay may be grown overnight on suitable agar media and then suspended in a liquid medium appropriate for the growth of the organism. The suspension may be a 0.5 McFarland and a further 1 in 10 dilution may be advantageously made into the same liquid medium to prepare the final organism suspension in 100 μL. Plates may be incubated under appropriate conditions at 37° C. for 24 hours prior to reading. The Minimum Inhibitory Concentration (MIC) is intended to refer to the lowest drug concentration able to reduce growth by 80% or more.
# (§2) Compounds may be evaluated against organisms such as Gram-positive species, including Staphylococcus aureus, Streptococcus pneumoniae, and Streptococcus pyogenes; and Gram-negative species including Haemophilus influenzae, and Moraxella catarrhalis.
# Sau517 = experiment: Bacterial susceptibility testing (MIC), Sau517; assay type: cell-based; conditions: Staphylococcus aureus, liquid media, 37° C., 24 hours, lowest concentration reducing growth by 80% or more
# From the text: as §1, §2
# Spy838 = experiment: Bacterial susceptibility testing (MIC), Spy838; assay type: cell-based; conditions: Streptococcus pyogenes, liquid media, 37° C., 24 hours, lowest concentration reducing growth by 80% or more
# From the text: as §1, §2
# Spn548 = experiment: Bacterial susceptibility testing (MIC), Spn548; assay type: cell-based; conditions: Streptococcus pneumoniae, liquid media, 37° C., 24 hours, lowest concentration reducing growth by 80% or more
# From the text: as §1, §2
# Spn538 = experiment: Bacterial susceptibility testing (MIC), Spn538; assay type: cell-based; conditions: Streptococcus pneumoniae, liquid media, 37° C., 24 hours, lowest concentration reducing growth by 80% or more
# From the text: as §1, §2
# Hin446 = experiment: Bacterial susceptibility testing (MIC), Hin446; assay type: cell-based; conditions: Haemophilus influenzae, liquid media, 37° C., 24 hours, lowest concentration reducing growth by 80% or more
# From the text: as §1, §2
# Hin737 = experiment: Bacterial susceptibility testing (MIC), Hin737; assay type: cell-based; conditions: Haemophilus influenzae, liquid media, 37° C., 24 hours, lowest concentration reducing growth by 80% or more
# From the text: as §1, §2
# Hin158 = experiment: Bacterial susceptibility testing (MIC), Hin158; assay type: cell-based; conditions: Haemophilus influenzae, liquid media, 37° C., 24 hours, lowest concentration reducing growth by 80% or more
# From the text: as §1, §2
# Mca445 = experiment: Bacterial susceptibility testing (MIC), Mca445; assay type: cell-based; conditions: Moraxella catarrhalis, liquid media, 37° C., 24 hours, lowest concentration reducing growth by 80% or more
# From the text: as §1, §2
# [1] = molecular target: Escherichia coli DNA gyrase A/B tetramer (Escherichia coli, UniProt P0AES4+P0AES6); experiment: DNA gyrase supercoiling activity fluorescence polarisation assay; assay type: biochemical
# Escherichia coli DNA gyrase A/B tetramer, sequence (P0AES4 whole entry, one chain of several): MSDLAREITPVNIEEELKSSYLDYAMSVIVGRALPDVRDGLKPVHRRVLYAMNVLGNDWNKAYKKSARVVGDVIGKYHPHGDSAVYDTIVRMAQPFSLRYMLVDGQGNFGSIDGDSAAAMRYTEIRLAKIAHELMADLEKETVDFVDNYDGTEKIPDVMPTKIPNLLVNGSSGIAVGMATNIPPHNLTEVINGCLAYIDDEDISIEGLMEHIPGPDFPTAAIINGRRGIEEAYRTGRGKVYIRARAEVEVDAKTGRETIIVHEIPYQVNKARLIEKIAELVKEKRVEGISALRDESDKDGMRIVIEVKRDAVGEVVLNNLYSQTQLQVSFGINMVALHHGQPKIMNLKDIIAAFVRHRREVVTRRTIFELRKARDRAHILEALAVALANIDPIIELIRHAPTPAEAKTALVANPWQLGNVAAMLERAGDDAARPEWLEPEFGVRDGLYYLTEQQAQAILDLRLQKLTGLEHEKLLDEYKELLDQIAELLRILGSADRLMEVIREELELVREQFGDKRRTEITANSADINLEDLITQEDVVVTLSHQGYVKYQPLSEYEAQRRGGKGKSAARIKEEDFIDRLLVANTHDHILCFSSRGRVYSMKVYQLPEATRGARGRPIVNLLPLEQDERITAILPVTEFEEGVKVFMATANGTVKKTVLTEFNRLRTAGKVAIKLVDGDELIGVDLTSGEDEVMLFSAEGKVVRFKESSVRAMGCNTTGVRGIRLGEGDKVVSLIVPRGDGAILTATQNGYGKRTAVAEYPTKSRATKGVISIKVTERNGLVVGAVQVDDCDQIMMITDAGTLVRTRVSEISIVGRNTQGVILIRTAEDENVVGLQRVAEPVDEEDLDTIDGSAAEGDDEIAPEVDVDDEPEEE
# Outline: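 5 nM gyrase supercoils 130 μg/ml relaxed triplex-sequence plasmid with 0.3 mM ATP in Tris pH 7.5/KCl/MgCl2/spermidine buffer, 0.8% DMSO, ~30 min at ambient temperature, 5-10 compound concentrations. Quenched with 40 nM BODIPY-FL triplex probe at pH 3.5; anisotropy read after 60 min (485/535 nm). IC50 by nonlinear regression against no-compound and 5 uM ciprofloxacin controls.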
smiles,measurement,setting,value
"C[C@@H]1CN2c3ccc(C#C[Si](C)(C)C)cc3CC3(C(=O)NC(=O)NC3=O)[C@H]2[C@H](C)O1 (racemic) [Example 1, (2R,4S,4aS)-rel-2,4-Dimethyl-8-((trimethylsilypethynyl)-2,4,4a,6-tetrahydro-1H,1′H-spiro[[1,4]oxazino[4,3-a]quinoline-5,5′-pyrimidine]-2′,4′,6′(3′H)-trion]",MIC,Sau516,8 µg/mL
same,MIC,Sau517,8 µg/mL
same,MIC,Spy838,16 µg/mL
same,MIC,Spn548,16 µg/mL
same,MIC,Spn538,32 µg/mL
same,MIC,Hin446,4 µg/mL
same,MIC,Hin737,16 µg/mL
same,MIC,Hin158,0.13 µg/mL
same,MIC,Mca445,2 µg/mL
same,IC50,[1],7.57 µM
"C[C@@H]1CN2c3c(cc(C(=O)NC4CCCOC4)c(F)c3F)CC3(C(=O)NC(=O)NC3=O)[C@H]2[C@H](C)O1 (relative stereo) [Example 65, (2R,4S,4aS)-rel-9,10-Difluoro-2,4-dimethyl-2′,4′,6′-trioxo-N-(tetrahydro-2H-pyran-3-yl)-1,1′,2,3′,4,4′,4a,6′-octahydro-2′H,6H-spiro[1,4-oxazino[4,3-a]quinoline-5,5′-pyrimidine]-8-carboxamide]",IC50,[1],> 10 µM
"C[C@@H]1CN2c3ccc(NC(=O)N4CCCCC4)cc3CC3(C(=O)NC(=O)NC3=O)[C@H]2[C@H](C)O1 (relative stereo) [Example 74, N-[(2R,4S,4aS)-rel-2,4-Dimethyl-2′,4′,6′-trioxo-1,1′,2,3′,4,4′,4a,6′-octahydro-2′H,6H-spiro[1,4-oxazino[4,3-a]quinoline-5,5′-pyrimidin]-8-yl]piperidine-1-carboxamide]",IC50,[1],3.51 µM
"C[C@@H]1CN2c3c(cc(C#Cc4cccnc4)c(F)c3F)CC3(C(=O)NC(=O)NC3=O)[C@H]2[C@H](C)O1 (relative stereo) [Example 18, (2R,4S,4aS)-rel-9,10-Difluoro-2,4-dimethyl-8-(pyridin-3-ylethynyl)-1,2,4,4a-tetrahydro-2′H,6H-spiro[1,4-oxazino[4,3-a]quinoline-5,5′-pyrimidine]-2′,4′,6′(1′H,3′H)-trione]",IC50,[1],0.5 µM
"C[C@H]1CN2c3c(cc(C#Cc4c[nH]cn4)c(F)c3F)CC3(C(=O)NC(=O)NC3=O)[C@@H]2[C@@H](C)O1 (relative stereo) [Example 15, (2S,4R,4aR)-rel-9,10-Difluoro-8-(1H-imidazol-4-ylethynyl)-2,4-dimethyl-1,2,4,4a-tetrahydro-2′H,6H-spiro[1,4-oxazino[4,3-a]quinoline-5,5′-pyrimidine]-2′,4′,6′(1′H,3′H)-trione]",IC50,[1],0.7 µM
"C[C@@H]1CN2c3cc(F)c(C#Cc4nncs4)cc3CC3(C(=O)NC(=O)NC3=O)[C@H]2[C@H](C)O1 (relative stereo) [Example 24, (2R,4S,4aS)-rel-9-Fluoro-2,4-dimethyl-8-(1,3,4-thiadiazol-2-ylethynyl)-1,2,4,4a-tetrahydro-2′H,6H-spiro[1,4-oxazino[4,3-a]quinoline-5,5′-pyrimidine]-2′,4′,6′(1′H,3′H)-trione]",IC50,[1],0.35 µM
"C[C@@H]1CN2c3c(cc(C#Cc4ccc(-c5nnn[nH]5)s4)c(F)c3F)CC3(C(=O)NC(=O)NC3=O)[C@H]2[C@H](C)O1 (relative stereo) [Example 14, (2R,4S,4aS)-rel-9,10-Difluoro-2,4-dimethyl-8-{[5-(1H-tetrazol-5-yl)thiophen-2-yl]ethynyl}-1,2,4,4a-tetrahydro-2′H,6H-spiro[1,4-oxazino[4,3-a]quinoline-5,5′-pyrimidine]-2′,4′,6′(1′H,3′H)-trione]",IC50,[1],1.12 µM
